What all share (experiment): relative viability (nuclei count vs DMSO), 5 days (fraction); higher = more cells survive
Compound in assay [1]: C/C(=N\NC(=S)N1CCC1)/C2=CC=CC=N2 + CS(=O)(=O)CCNCc1ccc(-c2ccc3ncnc(Nc4ccc(OCc5cccc(F)c5)c(Cl)c4)c3c2)o1 [Lapatinib] (partner 2 µM)
In short, it runs like this:
(§1)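 Lung cancer cell lines in 1536-well plates got either a single drug or a fixed anchor-drug dose together with five library-drug doses (not always all listed) in √10 steps, by pin tool, on the day after seeding. Nuclei were counted after 5 days, and relative viability is the treated-to-vehicle ratio of nuclei counts. Values are medians of duplicate plates.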

Compound in assay [2]: C/C(=N\NC(=S)N1CCC1)/C2=CC=CC=N2 + CCNC(=O)c1noc(-c2cc(C(C)C)c(O)cc2O)c1-c1ccc(CN2CCOCC2)cc1 [Luminespib] (partner 0.01 µM)
In short, it runs like this: as §1

Compound in assay [3]: C/C(=N\NC(=S)N1CCC1)/C2=CC=CC=N2 + Nc1ncn([C@H]2C[C@H](O)[C@@H](CO)O2)c(=O)n1 [Decitabine] (partner 2 µM)
In short, it runs like this:
as §1

Compound in assay [4]: C/C(=N\NC(=S)N1CCC1)/C2=CC=CC=N2 + O=C(c1cc(Cc2n[nH]c(=O)c3ccccc23)ccc1F)N1CCN(C(=O)C2CC2)CC1 [Olaparib] (partner 8 µM)
In short, it runs like this:
as §1

As for NCI-H661, the relative viability in assay [1] (first compound 0.05 µM) amounted to 0.187; in assay [1] (first compound 0.1581 µM) it was 0.184; in assay [1] (first compound 0.5 µM), 0.2; in assay [1] (first compound 1.581 µM), 0.201; in assay [1] (first compound 5 µM), 0.198; in assay [2] (first compound 0.05 µM) it was 0.246. Besides, the relative viability in assay [2] (first compound 0.1581 µM) is 0.221; in assay [2] (first compound 0.5 µM), 0.212; in assay [2] (first compound 1.581 µM) it was 0.202; in assay [2] (first compound 5 µM), 0.219; in assay [3] (first compound 0.05 µM) it was 0.274; in assay [3] (first compound 0.1581 µM), 0.26. Moreover, the relative viability came out at 0.218 in assay [3] (first compound 0.5 µM); 0.236 in assay [3] (first compound 1.581 µM); 0.232 in assay [3] (first compound 5 µM); 0.244 in assay [4] (first compound 0.05 µM); 0.239 in assay [4] (first compound 0.1581 µM); 0.202 in assay [4] (first compound 0.5 µM). Also, the relative viability stood at 0.243 in assay [4] (first compound 1.581 µM) and 0.219 in assay [4] (first compound 5 µM).

Turning to NCI-H650, the relative viability was found to be 0.174 in assay [1] (first compound 0.05 µM); 0.294 in assay [1] (first compound 0.1581 µM); 0.23 in assay [1] (first compound 0.5 µM); 0.168 in assay [1] (first compound 1.581 µM); 0.203 in assay [1] (first compound 5 µM); 0.177 in assay [2] (first compound 0.05 µM). In addition, the relative viability in assay [2] (first compound 0.1581 µM) is 0.2; in assay [2] (first compound 0.5 µM), 0.198; in assay [2] (first compound 1.581 µM), 0.173; in assay [2] (first compound 5 µM), 0.2; in assay [3] (first compound 0.05 µM) it was 0.169; in assay [3] (first compound 0.1581 µM), 0.192. Further, the relative viability in assay [3] (first compound 0.5 µM) was found to be 0.187; in assay [3] (first compound 1.581 µM), 0.186; in assay [3] (first compound 5 µM), 0.157; in assay [4] (first compound 0.05 µM), 0.135; in assay [4] (first compound 0.1581 µM) it was 0.151; in assay [4] (first compound 0.5 µM), 0.147. The results for the relative viability in assay [4] (first compound 1.581 µM) and in assay [4] (first compound 5 µM) were 0.114 and 0.138, respectively.

Turning to NCI-H647, the relative viability in assay [1] (first compound 0.05 µM) was 0.139; in assay [1] (first compound 0.1581 µM) it was 0.0972; in assay [1] (first compound 0.5 µM), 0.11; in assay [1] (first compound 1.581 µM), 0.0821; in assay [1] (first compound 5 µM), 0.0828; in assay [2] (first compound 0.05 µM) it was 0.0621. Moreover, the relative viability in assay [2] (first compound 0.1581 µM) amounted to 0.051; in assay [2] (first compound 0.5 µM) it was 0.0851; in assay [2] (first compound 1.581 µM), 0.0853; in assay [2] (first compound 5 µM), 0.0804; in assay [3] (first compound 0.05 µM), 0.0887; in assay [3] (first compound 0.1581 µM), 0.123. Moreover, the relative viability in assay [3] (first compound 0.5 µM) worked out at 0.117; in assay [3] (first compound 1.581 µM) it was 0.0803; in assay [3] (first compound 5 µM) it was 0.0922; in assay [4] (first compound 0.05 µM), 0.0792; in assay [4] (first compound 0.1581 µM), 0.0588; in assay [4] (first compound 0.5 µM) it was 0.0743. Besides, the relative viability worked out at 0.0667 in assay [4] (first compound 1.581 µM) and 0.0631 in assay [4] (first compound 5 µM).

For HCC-78, the relative viability in assay [1] (first compound 0.05 µM) worked out at 0.0064; in assay [1] (first compound 0.1581 µM) it was 0.211; in assay [1] (first compound 0.5 µM), 0.226; in assay [1] (first compound 1.581 µM) it was 0.158; in assay [1] (first compound 5 µM), 0.178; in assay [3] (first compound 0.05 µM), 0.453. The relative viability in assay [3] (first compound 0.1581 µM) turned out to be 0.413; in assay [3] (first compound 0.5 µM) it was 0.407; in assay [3] (first compound 1.581 µM) it was 0.244; in assay [3] (first compound 5 µM), 0.22; in assay [4] (first compound 0.05 µM), 0.523; in assay [4] (first compound 0.1581 µM), 0.379. For the same cell line, the figures for the relative viability in assay [4] (first compound 0.5 µM), in assay [4] (first compound 1.581 µM) and in assay [4] (first compound 5 µM) were 0.32, 0.249 and 0.211, respectively.

On to HCC-366, for which the relative viability is 0.0217 in assay [1] (first compound 0.05 µM); 0.0257 in assay [1] (first compound 0.1581 µM); 0.0157 in assay [1] (first compound 0.5 µM); 0.0217 in assay [1] (first compound 1.581 µM); 0.0218 in assay [1] (first compound 5 µM); 0.103 in assay [3] (first compound 0.05 µM). Moreover, the relative viability in assay [3] (first compound 0.1581 µM) worked out at 0.0378; in assay [3] (first compound 0.5 µM) it was 0.0365; in assay [3] (first compound 1.581 µM) it was 0.035; in assay [3] (first compound 5 µM), 0.0275; in assay [4] (first compound 0.05 µM), 0.119; in assay [4] (first compound 0.1581 µM) it was 0.0248. Also, the relative viability in assay [4] (first compound 0.5 µM) is 0.0175; in assay [4] (first compound 1.581 µM) it was 0.0198; in assay [4] (first compound 5 µM), 0.0219.

On to LCLC-103H, for which the relative viability in assay [2] (first compound 0.05 µM) came out at 0.174; in assay [2] (first compound 0.1581 µM), 0.204; in assay [2] (first compound 0.5 µM), 0.233; in assay [2] (first compound 1.581 µM), 0.182; in assay [2] (first compound 5 µM), 0.158; in assay [3] (first compound 0.05 µM), 0.346. For the same cell line, the relative viability in assay [3] (first compound 0.1581 µM) worked out at 0.684; in assay [3] (first compound 0.5 µM), 0.329; in assay [3] (first compound 1.581 µM) it was 0.342; in assay [3] (first compound 5 µM), 0.291; in assay [4] (first compound 0.05 µM), 0.3; in assay [4] (first compound 0.1581 µM) it was 0.613. In addition, the relative viability came to 0.222 in assay [4] (first compound 0.5 µM), 0.236 in assay [4] (first compound 1.581 µM) and 0.256 in assay [4] (first compound 5 µM).

As to NCI-H1563, the relative viability in assay [1] (first compound 0.05 µM) came to 0.626; in assay [1] (first compound 0.1581 µM), 0.61; in assay [1] (first compound 0.5 µM) it was 0.573; in assay [1] (first compound 1.581 µM) it was 0.598; in assay [1] (first compound 5 µM) it was 0.623; in assay [2] (first compound 0.05 µM) it was 0.464. Further, the relative viability in assay [2] (first compound 0.1581 µM) stood at 0.435; in assay [2] (first compound 0.5 µM), 0.472; in assay [2] (first compound 1.581 µM), 0.429; in assay [2] (first compound 5 µM), 0.467.

For the cell line EBC-1, the relative viability worked out at 0.225 in assay [1] (first compound 0.05 µM); 0.195 in assay [1] (first compound 0.1581 µM); 0.226 in assay [1] (first compound 0.5 µM); 0.191 in assay [1] (first compound 1.581 µM); 0.161 in assay [1] (first compound 5 µM); 0.163 in assay [4] (first compound 0.05 µM). Also, the relative viability was 0.164 in assay [4] (first compound 0.1581 µM), 0.152 in assay [4] (first compound 0.5 µM), 0.131 in assay [4] (first compound 1.581 µM) and 0.13 in assay [4] (first compound 5 µM).

Take Calu-6: the relative viability was found to be 0.132 in assay [1] (first compound 0.05 µM); 0.146 in assay [1] (first compound 0.1581 µM); 0.124 in assay [1] (first compound 0.5 µM); 0.128 in assay [1] (first compound 1.581 µM); 0.131 in assay [1] (first compound 5 µM); 0.101 in assay [4] (first compound 0.05 µM). Besides, the relative viability in assay [4] (first compound 0.1581 µM) amounted to 0.133; in assay [4] (first compound 0.5 µM), 0.141; in assay [4] (first compound 1.581 µM) it was 0.118; in assay [4] (first compound 5 µM), 0.122.

Source of the values: the supplement of paper PMC10307832.
